Source: ChEMBL document CHEMBL1156031, “Tetrahydrocarbazole-based serotonin reuptake inhibitor/dopamine D2 partial agonists for the potential treatment of schizophrenia” (Bioorg Med Chem Lett, 2009)
Calls of active or inactive are those of the source. The rule behind the calls is not given here.

Key:
D(2) dopamine receptor [1] = target: T1, D(2) dopamine receptor (Homo sapiens, UniProt P14416); experiment: Ratio of drug to quinpirole for agonist activity at D2 receptor assessed as change in intracellular cAMP level by cell based assay; assay type: functional
T1 sequence (P14416 whole entry): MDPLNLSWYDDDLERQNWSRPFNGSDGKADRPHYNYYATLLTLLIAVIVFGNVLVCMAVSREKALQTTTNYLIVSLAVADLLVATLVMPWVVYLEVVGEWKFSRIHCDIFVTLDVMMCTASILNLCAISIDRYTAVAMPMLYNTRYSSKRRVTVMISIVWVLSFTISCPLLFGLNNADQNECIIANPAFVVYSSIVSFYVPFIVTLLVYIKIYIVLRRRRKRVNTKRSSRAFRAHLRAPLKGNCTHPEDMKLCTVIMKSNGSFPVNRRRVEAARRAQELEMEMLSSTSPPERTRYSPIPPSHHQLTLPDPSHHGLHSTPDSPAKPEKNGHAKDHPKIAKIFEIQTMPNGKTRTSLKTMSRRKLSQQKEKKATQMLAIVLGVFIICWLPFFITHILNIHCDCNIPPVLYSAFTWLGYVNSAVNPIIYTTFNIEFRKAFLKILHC

[2] = target: T2, 5-hydroxytryptamine receptor 2B (Homo sapiens, UniProt P41595); experiment: Agonist activity at human recombinant 5-HT2B receptor expressed in CHO-K1 cells assessed as increase in intracellular calcium level by FLIPR assay; assay type: functional, cell-based
T2 sequence (P41595 whole entry): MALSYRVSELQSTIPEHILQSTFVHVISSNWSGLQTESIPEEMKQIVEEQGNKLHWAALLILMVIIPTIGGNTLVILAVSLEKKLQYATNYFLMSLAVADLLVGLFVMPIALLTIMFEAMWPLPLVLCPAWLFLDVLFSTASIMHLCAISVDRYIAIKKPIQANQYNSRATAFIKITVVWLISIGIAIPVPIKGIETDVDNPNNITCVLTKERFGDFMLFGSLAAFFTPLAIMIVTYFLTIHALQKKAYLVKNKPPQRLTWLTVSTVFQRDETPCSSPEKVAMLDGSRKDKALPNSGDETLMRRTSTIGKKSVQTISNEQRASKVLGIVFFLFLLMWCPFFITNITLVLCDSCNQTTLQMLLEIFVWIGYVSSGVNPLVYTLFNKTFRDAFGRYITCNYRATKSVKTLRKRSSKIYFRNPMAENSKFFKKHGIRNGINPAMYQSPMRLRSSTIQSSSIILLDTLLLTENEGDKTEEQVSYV

[3] = Selectivity of Ki for human serotonin transporter to Ki for rat alpha1 adrenergic receptor
Mus musculus [4] = experiment: Inhibition of catalepsy in mouse at 10 mg/kg, ip after 90 mins; assay type: functional
Rattus norvegicus [5] = experiment: Behavioral effect in CAR rat model assessed as reduction of avoidance response at 10 mg/kg, ip; assay type: functional, organism-based; parameters: dose 10 mg/kg
Rattus norvegicus [6] = experiment: Behavioral effect in CAR rat model assessed as reduction of avoidance response at 10 mg/kg, po; assay type: functional, organism-based; parameters: dose 10 mg/kg
Rattus norvegicus [7] = experiment: Behavioral effect in CAR rat model assessed as increase in escape response at 10 mg/kg, ip; assay type: functional, organism-based; parameters: dose 10 mg/kg
Rattus norvegicus [8] = experiment: Behavioral effect in CAR rat model assessed as increase in escape response at 10 mg/kg, po; assay type: functional, organism-based; parameters: dose 10 mg/kg
[9] = target: Sodium-dependent serotonin transporter (Homo sapiens, UniProt P31645); experiment: biochemical; assay type: cell-based, HEK293
Sodium-dependent serotonin transporter, sequence (P31645 whole entry): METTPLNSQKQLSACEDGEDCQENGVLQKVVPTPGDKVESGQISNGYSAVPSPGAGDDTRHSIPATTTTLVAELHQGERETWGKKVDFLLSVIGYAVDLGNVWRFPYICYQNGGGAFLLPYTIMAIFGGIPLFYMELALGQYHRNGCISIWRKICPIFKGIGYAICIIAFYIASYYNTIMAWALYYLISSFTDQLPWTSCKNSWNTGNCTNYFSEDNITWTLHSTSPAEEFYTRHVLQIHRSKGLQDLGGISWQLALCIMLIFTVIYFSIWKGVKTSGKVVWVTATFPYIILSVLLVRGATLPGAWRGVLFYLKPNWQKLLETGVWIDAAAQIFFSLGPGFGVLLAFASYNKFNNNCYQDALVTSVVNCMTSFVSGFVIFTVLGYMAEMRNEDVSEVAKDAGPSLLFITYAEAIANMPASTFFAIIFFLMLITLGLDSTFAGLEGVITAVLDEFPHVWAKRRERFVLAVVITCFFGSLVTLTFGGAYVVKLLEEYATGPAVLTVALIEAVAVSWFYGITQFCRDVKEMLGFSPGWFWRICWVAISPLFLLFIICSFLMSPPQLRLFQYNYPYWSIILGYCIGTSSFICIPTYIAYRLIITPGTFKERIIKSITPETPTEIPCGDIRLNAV

D(2) dopamine receptor [10] = target: T1, D(2) dopamine receptor; experiment: Displacement of [3H]spiperone from D2 receptor
[11] = target: T2, 5-hydroxytryptamine receptor 2B; experiment: Binding affinity to 5-HT2B receptor
[12] = target: 5-hydroxytryptamine receptor 2A (Homo sapiens, UniProt P28223); experiment: Agonist activity at 5-HT2A receptor; assay type: functional
5-hydroxytryptamine receptor 2A, sequence (P28223 whole entry): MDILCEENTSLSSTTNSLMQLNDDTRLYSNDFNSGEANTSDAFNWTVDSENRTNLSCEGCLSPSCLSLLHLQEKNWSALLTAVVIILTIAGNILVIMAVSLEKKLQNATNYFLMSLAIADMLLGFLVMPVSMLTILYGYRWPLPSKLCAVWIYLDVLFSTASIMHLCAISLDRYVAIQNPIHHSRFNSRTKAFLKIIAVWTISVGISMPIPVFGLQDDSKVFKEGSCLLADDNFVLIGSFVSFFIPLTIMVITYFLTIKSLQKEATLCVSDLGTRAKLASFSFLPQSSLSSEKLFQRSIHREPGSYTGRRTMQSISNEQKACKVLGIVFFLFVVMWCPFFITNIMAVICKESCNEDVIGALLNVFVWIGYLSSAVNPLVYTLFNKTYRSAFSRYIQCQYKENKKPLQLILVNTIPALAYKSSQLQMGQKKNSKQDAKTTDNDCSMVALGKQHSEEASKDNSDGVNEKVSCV

[13] = target: T3, Adrenergic receptor alpha-1 (Rattus norvegicus, UniProt P15823+P23944+P43140); experiment: Binding affinity to alpha1 adrenergic receptor in rat brain membrane by radioligand binding assay; assay type: cell membranes
T3 sequence (P15823 whole entry): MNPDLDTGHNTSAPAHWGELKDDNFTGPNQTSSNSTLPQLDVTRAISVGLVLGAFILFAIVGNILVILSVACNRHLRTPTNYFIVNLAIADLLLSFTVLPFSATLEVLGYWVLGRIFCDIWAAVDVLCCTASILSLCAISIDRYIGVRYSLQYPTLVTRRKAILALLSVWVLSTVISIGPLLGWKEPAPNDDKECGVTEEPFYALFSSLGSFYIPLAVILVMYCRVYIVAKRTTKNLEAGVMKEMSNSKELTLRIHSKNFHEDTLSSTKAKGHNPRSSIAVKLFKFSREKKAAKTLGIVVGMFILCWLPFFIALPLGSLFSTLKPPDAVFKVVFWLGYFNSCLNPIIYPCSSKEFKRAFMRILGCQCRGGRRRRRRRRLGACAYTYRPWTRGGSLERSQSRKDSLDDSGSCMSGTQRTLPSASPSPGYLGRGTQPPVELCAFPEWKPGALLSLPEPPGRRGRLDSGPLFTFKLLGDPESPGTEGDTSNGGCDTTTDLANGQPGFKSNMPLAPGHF
T3 sequence (P23944 whole entry): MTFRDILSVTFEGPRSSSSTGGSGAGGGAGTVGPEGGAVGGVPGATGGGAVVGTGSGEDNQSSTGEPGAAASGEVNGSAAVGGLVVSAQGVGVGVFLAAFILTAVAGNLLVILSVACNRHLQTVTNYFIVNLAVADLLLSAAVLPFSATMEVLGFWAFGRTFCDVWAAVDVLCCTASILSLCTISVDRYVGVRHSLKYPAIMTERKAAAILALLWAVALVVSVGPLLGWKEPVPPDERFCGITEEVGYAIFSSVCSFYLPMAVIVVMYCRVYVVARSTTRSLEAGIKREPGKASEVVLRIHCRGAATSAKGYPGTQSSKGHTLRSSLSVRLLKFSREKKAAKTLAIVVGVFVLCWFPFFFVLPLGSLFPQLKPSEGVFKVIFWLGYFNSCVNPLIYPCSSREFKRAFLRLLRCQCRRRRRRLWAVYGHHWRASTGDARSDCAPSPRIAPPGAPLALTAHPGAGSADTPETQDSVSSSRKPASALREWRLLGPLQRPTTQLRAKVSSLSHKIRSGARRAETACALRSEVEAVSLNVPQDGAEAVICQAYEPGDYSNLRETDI
T3 sequence (P43140 whole entry): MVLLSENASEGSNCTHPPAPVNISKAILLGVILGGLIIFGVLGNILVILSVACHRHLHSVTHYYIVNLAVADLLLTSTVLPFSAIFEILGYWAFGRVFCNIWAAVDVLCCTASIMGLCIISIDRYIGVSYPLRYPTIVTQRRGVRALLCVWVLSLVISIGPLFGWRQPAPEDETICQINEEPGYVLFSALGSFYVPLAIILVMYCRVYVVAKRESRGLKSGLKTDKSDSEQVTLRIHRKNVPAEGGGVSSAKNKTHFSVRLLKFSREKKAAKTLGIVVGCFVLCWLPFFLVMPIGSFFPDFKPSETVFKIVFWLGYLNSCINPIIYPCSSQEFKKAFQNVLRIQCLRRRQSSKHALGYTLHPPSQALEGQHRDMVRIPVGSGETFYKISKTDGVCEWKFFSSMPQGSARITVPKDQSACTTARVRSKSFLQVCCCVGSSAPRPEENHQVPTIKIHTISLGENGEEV

Mus musculus [14] = experiment: Antipsychotic activity in ip dosed AIC mouse model assessed as climbing response; assay type: functional
Mus musculus [15] = experiment: Antipsychotic activity in ip dosed AIC mouse model assessed as stereotype effects; assay type: functional

SMILES: O=C1Cc2c(ccc3c2OC[C@H](CNCC2CCc4[nH]c5ccc(F)cc5c4C2)O3)N1 (stereo in doubt; 25) [listing 1 of 2 here]
- Ratio (D(2) dopamine receptor [1]): 0.4
- Activity [2]: inactive
- Ratio Ki [3]: 10

SMILES: O=C1Cc2c(ccc3c2OC[C@H](CNCCCC2CCc4c([nH]c5ccc(F)cc45)C2)O3)N1 (stereo in doubt; 23) [listing 1 of 2 here]
- Ratio (D(2) dopamine receptor [1]): 0.3
- Activity [2]: inactive
- Ratio Ki [3]: 10

SMILES: O=c1[nH]c2cccc(N3CCN(CC4CCc5[nH]c6ccc(F)cc6c5C4)CC3)c2o1 (single isomer, unassigned; 31) [listing 1 of 2 here]
- Ratio (D(2) dopamine receptor [1]): 0.6
- Activity [2]: inactive
- Activity (Mus musculus [4]): inactive
- Activity (Rattus norvegicus [5]): Active
- Activity (Rattus norvegicus [6]): Active
- Activity (Rattus norvegicus [7]): Active
- Activity (Rattus norvegicus [8]): Active

SMILES: O=C1Cc2c(cccc2N2CCN(CCC3CCc4[nH]c5ccc(F)cc5c4C3)CC2)N1 (stereo not given)
- Ki [9]: 4700 nM
- Ki (D(2) dopamine receptor [10]): 15 nM

SMILES: O=C1Cc2c(cccc2N2CCN(CC3CCc4[nH]c5ccc(F)cc5c4C3)CC2)N1 (stereo not given)
- Ki [9]: 1140 nM
- Ki (D(2) dopamine receptor [10]): 15 nM

SMILES: O=c1[nH]c2cccc(N3CCN(CC4CCc5[nH]c6ccc(F)cc6c5C4)CC3)c2o1 (single isomer, unassigned; 30)
- Ki [9]: 32 nM
- Ki (D(2) dopamine receptor [10]): 60 nM

SMILES: O=C1Cc2c(ccc3c2OC[C@H](CNCC2CCc4[nH]c5ccc(F)cc5c4C2)O3)N1 (single isomer, unassigned) [listing 1 of 2 here]
- Ki [9]: 7 nM
- Ki (D(2) dopamine receptor [10]): 3 nM
- Ki [11]: 130 nM
- Ki [12]: 2 nM
- Ki [13]: 0.5 nM

SMILES: O=c1[nH]c2cccc(N3CCN(CCCC4CCc5c([nH]c6ccc(F)cc56)C4)CC3)c2o1 (stereo not given)
- Ki [9]: 62 nM
- Ki (D(2) dopamine receptor [10]): 50 nM

SMILES: O=C1Cc2c(ccc3c2OC[C@H](CNCC2CCc4c([nH]c5ccc(F)cc45)C2)O3)N1 (stereo not given in full)
- Ki [9]: 25 nM
- Ki (D(2) dopamine receptor [10]): 100 nM

SMILES: O=c1[nH]c2cccc(CN3CCN(CC4CCc5[nH]c6ccc(F)cc6c5C4)CC3)c2o1 (stereo not given)
- Ki [9]: 41 nM
- Ki (D(2) dopamine receptor [10]): 120 nM

SMILES: O=c1[nH]c2cccc(N3C[C@H]4C[C@@H]3CN4CC3CCc4[nH]c5ccc(F)cc5c4C3)c2o1 (stereo not given in full) [listing 1 of 3 here]
- Ki [9]: 8 nM
- Ki (D(2) dopamine receptor [10]): 14 nM
- Ki [11]: 165 nM
- Ki [12]: 1800 nM
- Ki [13]: 65 nM
- ED50 (Mus musculus [14]): 2.3 mg/kg
- ED50 (Mus musculus [15]): > 5 mg/kg
- inhibition in vivo at 10 mg/kg (Mus musculus [4]; 1.5 h, route intraperitoneal): 48%

SMILES: O=C1Cc2c(ccc3c2OC[C@H](CNCC2CCc4[nH]c5ccc(F)cc5c4C2)O3)N1 (single isomer, unassigned) [listing 2 of 2 here]
- Ratio (D(2) dopamine receptor [1]): 0.3
- Activity [2]: inactive
- Ratio Ki [3]: 10

SMILES: O=C1Cc2c(ccc3c2OC[C@H](CNCCC2CCc4[nH]c5ccc(F)cc5c4C2)O3)N1 (stereo not given in full) [listing 1 of 2 here]
- Ki [9]: 24 nM
- Ki (D(2) dopamine receptor [10]): 24 nM

SMILES: O=c1[nH]c2cccc(OC3CCN(CC4CCc5[nH]c6ccc(F)cc6c5C4)CC3)c2o1 (stereo not given)
- Ki [9]: 3 nM
- Ki (D(2) dopamine receptor [10]): 140 nM

SMILES: O=C1Cc2c(ccc3c2OC[C@H](CNCCC2CCc4c([nH]c5ccc(F)cc45)C2)O3)N1 (stereo not given in full)
- Ki [9]: 5200 nM
- Ki (D(2) dopamine receptor [10]): 36 nM

SMILES: O=C1Cc2c(ccc3c2OC[C@H](CNCCCC2CCc4c([nH]c5ccc(F)cc45)C2)O3)N1 (stereo in doubt; 22) [listing 1 of 2 here]
- Ki [9]: 15 nM
- Ki (D(2) dopamine receptor [10]): 50 nM
- Ki [11]: 610 nM
- Ki [12]: 6 nM
- Ki [13]: 54 nM

SMILES: O=c1[nH]c2cccc(N3C[C@H]4C[C@@H]3CN4CC3CCc4[nH]c5ccc(F)cc5c4C3)c2o1 (stereo not given in full) [listing 2 of 3 here]
- Ratio (D(2) dopamine receptor [1]): 0.3
- Activity [2]: inactive
- Ratio Ki [3]: 10

SMILES: O=c1[nH]c2cccc(OCC3CCN(CC4CCc5[nH]c6ccc(F)cc6c5C4)CC3)c2o1 (stereo not given)
- Ki [9]: 0.4 nM
- Ki (D(2) dopamine receptor [10]): 28 nM
- Ratio (D(2) dopamine receptor [1]): < 0.1
- Ki [11]: 110 nM
- Activity [2]: inactive
- Ki [13]: 130 nM

SMILES: O=C1Cc2c(ccc3c2OC[C@H](CNCCCC2CCc4c([nH]c5ccc(F)cc45)C2)O3)N1 (stereo in doubt; 23) [listing 2 of 2 here]
- Ki [9]: 4 nM
- Ki (D(2) dopamine receptor [10]): 45 nM
- Ki [11]: 400 nM
- Ki [13]: 22 nM

SMILES: O=c1[nH]c2cccc(OC3CCN(CCC4CCc5[nH]c6ccc(F)cc6c5C4)CC3)c2o1 (stereo not given)
- Ki [9]: 1200 nM
- Ki (D(2) dopamine receptor [10]): 310 nM

SMILES: O=c1[nH]c2cccc(N3C[C@H]4C[C@@H]3CN4CC3CCc4[nH]c5ccc(F)cc5c4C3)c2o1 (stereo not given in full) [listing 3 of 3 here]
- Ki [9]: 460 nM
- Ki (D(2) dopamine receptor [10]): 12 nM

SMILES: O=C1Cc2c(ccc3c2OC[C@H](CNCCCC2CCc4c([nH]c5ccc(F)cc45)C2)O3)N1 (stereo in doubt; 22) [listing 2 of 2 here]
- Ratio (D(2) dopamine receptor [1]): 0.3
- Activity [2]: inactive
- Ratio Ki [3]: 10

SMILES: O=c1[nH]c2cccc(N3CCN(CC4CCc5[nH]c6ccc(F)cc6c5C4)CC3)c2o1 (single isomer, unassigned; 31) [listing 2 of 2 here]
- Ki [9]: 22 nM
- Ki (D(2) dopamine receptor [10]): 17 nM
- Ki [11]: 680 nM
- Ki [12]: 130 nM
- Ki [13]: 220 nM
- ED50 (Mus musculus [14]): 0.5 mg/kg
- ED50 (Mus musculus [15]): > 1 mg/kg

SMILES: O=c1[nH]c2cccc(N3CCN(CC4CCc5c([nH]c6ccc(F)cc56)C4)CC3)c2o1 (stereo not given)
- Ki [9]: 62 nM
- Ki (D(2) dopamine receptor [10]): 220 nM

SMILES: O=c1[nH]c2cccc(OCC3CCN(CCC4CCc5[nH]c6ccc(F)cc6c5C4)CC3)c2o1 (stereo not given)
- Ki [9]: 10 nM
- Ki (D(2) dopamine receptor [10]): 720 nM

SMILES: O=C1Cc2c(ccc3c2OC[C@H](CNCCC2CCc4[nH]c5ccc(F)cc5c4C2)O3)N1 (stereo not given in full) [listing 2 of 2 here]
- Ki [9]: 21 nM
- Ki (D(2) dopamine receptor [10]): 24 nM

SMILES: O=C1Cc2c(ccc3c2OC[C@H](CNCC2CCc4[nH]c5ccc(F)cc5c4C2)O3)N1 (stereo in doubt; 25) [listing 2 of 2 here]
- Ki [9]: 1 nM
- Ki (D(2) dopamine receptor [10]): 3 nM
- Ki [11]: 6 nM
- Ki [12]: 2 nM
- Ki [13]: 0.72 nM
